# Measurements as given in patent US9067871B2, “Aminotetraline derivatives, pharmaceutical compositions containing them, and their use in therapy” (ABBVIE DEUTSCHLAND GMBH & CO KG, priority 2009, dated 2015).
# pIC50, pKi: −log10 of the molar value. Structures can show the parent of a compound that is named as a salt. Where two headings read alike, the source gives them in different places.
# Legend:
# [1] = molecular target: human GlyT1c (Homo sapiens (Human), UniProt P48067); assay: [3H]-Glycine uptake into recombinant CHO cells expressing human GlyT1; format: cell-based
# Sequence of human GlyT1c (P48067 whole entry): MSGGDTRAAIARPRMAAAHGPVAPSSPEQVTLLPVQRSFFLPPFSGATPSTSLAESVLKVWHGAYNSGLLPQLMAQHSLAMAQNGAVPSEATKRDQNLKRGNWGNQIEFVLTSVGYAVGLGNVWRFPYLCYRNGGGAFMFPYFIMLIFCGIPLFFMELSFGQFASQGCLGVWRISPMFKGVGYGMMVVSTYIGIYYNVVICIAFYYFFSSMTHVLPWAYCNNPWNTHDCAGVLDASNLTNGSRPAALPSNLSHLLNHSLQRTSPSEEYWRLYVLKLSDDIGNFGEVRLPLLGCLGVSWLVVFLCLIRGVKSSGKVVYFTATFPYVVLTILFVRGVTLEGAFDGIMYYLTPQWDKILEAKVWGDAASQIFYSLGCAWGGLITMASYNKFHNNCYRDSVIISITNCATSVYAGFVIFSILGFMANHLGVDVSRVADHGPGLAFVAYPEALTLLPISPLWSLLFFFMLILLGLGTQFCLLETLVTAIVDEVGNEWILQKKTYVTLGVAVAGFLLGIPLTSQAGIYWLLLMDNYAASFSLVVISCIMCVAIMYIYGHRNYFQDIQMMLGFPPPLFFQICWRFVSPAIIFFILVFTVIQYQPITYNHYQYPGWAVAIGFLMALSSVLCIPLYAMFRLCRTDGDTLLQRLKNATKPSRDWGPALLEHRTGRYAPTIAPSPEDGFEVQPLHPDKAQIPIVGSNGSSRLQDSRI
# Protocol: 1. [^3H]-Glycine uptake into recombinant CHO cells expressing human GlyT1: Human GlyT1c expressing recombinant hGlyT1c—5_CHO cells were plated at 20,000 cells per well in 96 well Cytostar-T scintillation microplates (Amersham Biosciences) and cultured to sub-confluency for 24 h. […] 80 μl HBSS buffer were added, followed by 10 μl inhibitor or vehicle (10% DMSO) and 10 μl [^3H]-glycine (TRK71, Amersham Biosciences) to a final concentration of 200 nM for initiation of glycine uptake. The plates were placed in a Wallac Microbeta (PerkinElmer) and continuously counted by solid phase scintillation spectrometry during up to 3 hours. Nonspecific uptake was determined in the presence of 10 μM Org24598.
# [2] = molecular target: human GlyT1c transporter (Homo sapiens (Human), UniProt P48067); assay: Radioligand binding assay using recombinant CHO cell membranes expressing human GlyT1; conditions: read-out: radioligand binding Kiapp
# Sequence of human GlyT1c transporter (P48067 whole entry): as above
# Source text: 2. Radioligand binding assays using recombinant CHO cell membranes expressing human GlyT1: […]
# [3] = hGlyT1c_5_CHO cells, 200 nM [3H]-glycine
# [4] = human GlyT1c-expressing CHO cell membranes
SMILES,"pIC50 [1, 3]","pKi [2, 4]",pIC50 [1],pKi [2]
"CCOC(=O)NC1CCc2ccc(OCCNS(=O)(=O)c3cc(C)sc3C)cc2C1Cc1cccc(Cl)c1 (stereo not drawn) [Example 60, {1-(3-Chloro-benzyl)-7-[2-(2,5-dimethyl-thiophene-3-sulfonylamino)-ethoxy]-1,2,3,4-tetrahydro-naphthalen-2-yl}-carbamic acid ethyl ester]",≤ 4.00,≥ 5.00,–,–
"CCOC(=O)NC1CCc2ccc(OCCNS(=O)(=O)c3cc(C)cs3)cc2C1Cc1cccc(Cl)c1 (stereo not drawn) [Example 54, {1-(3-Chloro-benzyl)-7-[2-(4-methyl-thiophene-2-sulfonylamino)-ethoxy]-1,2,3,4-tetrahydro-naphthalen-2-yl}-carbamic acid ethyl ester]",≤ 4.00,≥ 5.00,–,–
"Cn1cnc(S(=O)(=O)NCCOc2ccc3c(c2)C(Cc2ccc(Cl)c(Cl)c2)C(N)CC3)c1 (stereo not drawn) [Example 3, N-(2-(7-Amino-8-(3,4-dichlorobenzyl)-5,6,7,8-tetrahydronaphthalen-2-yloxy)ethyl)-1-methyl-1H-imidazole-4-sulfonamide hydrochloride]",–,–,≥ 8.00,≥ 8.00
"CCOC(=O)NC1CCc2ccc(OCCNS(=O)(=O)CCCF)cc2C1Cc1ccc(Cl)c(Cl)c1 (stereo not drawn) [Example 22, {1-(3,4-Dichloro-benzyl)-7-[2-(3-fluoro-propane-1-sulfonylamino)-ethoxy]-1,2,3,4-tetrahydro-naphthalen-2-yl}-carbamic acid ethyl ester]",≥ 3.00,≥ 5.00,–,–
"CCCS(=O)(=O)N(C)CCOc1ccc2c(c1)C(Cc1ccc(Cl)cc1)C(NC(=O)OCC)CC2 (stereo not drawn) [Example 76, (1-(4-Chloro-benzyl)-7-{2-[methyl-(propane-1-sulfonyl)-amino]-ethoxy}-1,2,3,4-tetrahydronaphthalen-2-yl)-carbamic acid ethyl ester]",≥ 3.00,≥ 4.00,–,–
"CCOC(=O)NC1CCc2ccc(OCCNC(=O)OC(C)(C)C)cc2C1Cc1ccc(Cl)c(Cl)c1 (stereo not drawn) [Example 1, [7-(2-tert-Butoxycarbonylamino-ethoxy)-1-(3,4-dichloro-benzyl)-1,2,3,4-tetrahydro-naphthalen-2-yl]-carbamic acid ethyl ester]",≥ 3.00,≥ 5.00,–,–
"CCOC(=O)NC1CCc2ccc(OCCNS(=O)(=O)CC)cc2C1Cc1cccc(Cl)c1 (stereo not drawn) [Example 65, [1-(3-Chloro-benzyl)-7-(2-ethanesulfonylamino-ethoxy)-1,2,3,4-tetrahydro-naphthalen-2-yl]-carbamic acid ethyl ester]",≥ 4.00,≤ 5.00,–,–
"CCOC(=O)NC1CCc2ccc(OCCNS(C)(=O)=O)cc2C1Cc1ccc(Cl)c(Cl)c1 (stereo not drawn) [Example 12, [1-(3,4-Dichloro-benzyl)-7-(2-methanesulfonylamino-ethoxy)-1,2,3,4-tetrahydronaphthalen-2-yl]-carbamic acid ethyl ester]",≥ 4.00,≤ 5.00,–,–
"CCOC(=O)NC1CCc2ccc(OCCNS(=O)(=O)c3cnn(C(F)F)c3)cc2C1Cc1cccc(Cl)c1 (stereo not drawn) [Example 81, {1-(3-Chloro-benzyl)-7-[2-(1-difluoromethyl-1H-pyrazole-4-sulfonylamino)-ethoxy]-1,2,3,4-tetrahydro-naphthalen-2-yl}-carbamic acid ethyl ester]",≤ 3.00,≥ 5.00,–,–
"CCCS(=O)(=O)NCc1ccc2c(c1)C(Cc1ccc(Cl)c(Cl)c1)C(NC(=O)OC(C)(C)C)CC2 (stereo not drawn) [Example 39, tert-Butyl[1-(3,4-dichlorobenzyl)-7-{[(propylsulfonyl)amino]methyl}-1,2,3,4-tetrahydronaphthalen-2-yl]carbamate]",≥ 3.00,≥ 5.00,–,–
"O=C(NC1CCc2ccc(O)cc2C1Cc1ccc(Cl)cc1)OCc1ccccc1 (stereo not drawn) [Example 37, Benzyl [1-(4-chlorobenzyl)-7-hydroxy-1,2,3,4-tetrahydronaphthalen-2-yl]carbamate]",≥ 4.00,≥ 5.00,–,–
"CC(C)(C)OC(=O)NC1CCc2ccc(CN)cc2C1Cc1ccc(Cl)c(Cl)c1 (stereo not drawn) [Example 38, tert-Butyl[7-(aminomethyl)-1-(3,4-dichlorobenzyl)-1,2,3,4-tetrahydronaphthalen-2-yl]carbamate]",≥ 4.00,≥ 4.00,–,–
"NC1CCc2ccc(CNS(=O)(=O)CCCF)cc2C1Cc1ccc(Cl)c(Cl)c1 (stereo not drawn) [Example 41, N-{[7-Amino-8-(3,4-dichlorobenzyl)-5,6,7,8-tetrahydronaphthalen-2-yl]methyl}-3-fluoropropane-1-sulfonamide hydrochloride]",≥ 4.00,≥ 5.00,–,–
"NC1CCc2ccc(OCCNS(=O)(=O)c3ccccc3)cc2C1Cc1ccc(Cl)c(Cl)c1 (stereo not drawn) [Example 16, N-{2-[7-Amino-8-(3,4-dichloro-benzyl)-5,6,7,8-tetrahydro-naphthalen-2-yloxy]-ethyl}-benzenesulfonamide hydrochloride]",–,–,≥ 5.00,≥ 5.00

# Continued, in another order:
"pIC50 [1, 3]","pKi [2, 4]",SMILES,pIC50 [1],pKi [2]
≥ 6.00,≥ 6.00,"CCOC(=O)NC1CCc2ccc(OCCNS(=O)(=O)c3cnn(C)c3)cc2C1Cc1cccc(Cl)c1 (stereo not drawn) [Example 46, {1-(3-Chloro-benzyl)-7-[2-(1-methyl-1H-pyrazole-4-sulfonylamino)-ethoxy]-1,2,3,4-tetrahydro-naphthalen-2-yl}-carbamic acid ethyl ester]",–,–
≥ 5.00,≥ 6.00,"CCCS(=O)(=O)NCCOc1ccc2c(c1)C(Cc1ccc(Cl)cc1Cl)C(N)CC2 (stereo not drawn) [Example 75, Propane-1-sulfonic acid {2-[7-amino-8-(2,4-dichloro-benzyl)-5,6,7,8-tetrahydronaphthalen-2-yloxy]-ethyl}-amide hydrochloride]",–,–
≥ 5.00,≥ 6.00,"Cc1ccc(S(=O)(=O)NCCOc2ccc3c(c2)C(Cc2cccc(Cl)c2)C(N)CC3)s1 (stereo not drawn) [Example 68, 5-Methyl-thiophene-2-sulfonic acid {2-[7-amino-8-(3-chloro-benzyl)-5,6,7,8-tetrahydronaphthalen-2-yloxy]-ethyl}-amide hydrochloride]",–,–
≥ 4.00,≤ 5.00,"CCCS(=O)(=O)NCCOc1ccc2c(c1)C(Cc1ccc(Cl)cc1Cl)C(NC(=O)OCC)CC2 (stereo not drawn) [Example 74, {1-(2,4-Dichloro-benzyl)-7-[2-(propane-1-sulfonylamino)-ethoxy]-1,2,3,4-tetrahydronaphthalen-2-yl}-carbamic acid ethyl ester]",–,–
≥ 5.00,≥ 5.00,"CCCS(=O)(=O)N(C)CCOc1ccc2c(c1)C(Cc1cccc(Cl)c1)C(NC(=O)OCC)CC2 (stereo not drawn) [Example 78, (1-(3-Chloro-benzyl)-7-{2-[methyl-(propane-1-sulfonyl)-amino]-ethoxy}-1,2,3,4-tetrahydronaphthalen-2-yl)-carbamic acid ethyl ester]",–,–
≥ 7.00,≥ 8.00,"Cn1cnc(S(=O)(=O)NCCOc2ccc3c(c2)C(Cc2ccc(Cl)c(Cl)c2)C(NC(=O)C(F)(F)F)CC3)c1 (stereo not drawn) [Example 18, N-{1-(3,4-Dichloro-benzyl)-7-[2-(1-methyl-1H-imidazole-4-sulfonylamino)-ethoxy]-1,2,3,4-tetrahydro-naphthalen-2-yl}-2,2,2-trifluoro-acetamide]",–,–
≥ 8.00,≥ 8.00,"Cn1cc(S(=O)(=O)NCCOc2ccc3c(c2)C(Cc2ccc(Cl)cc2)C(N)CC3)cn1 (stereo not drawn) [Example 28, 1-Methyl-1H-pyrazole-4-sulfonic acid {2-[7-amino-8-(4-chloro-benzyl)-5,6,7,8-tetrahydronaphthalen-2-yloxy]-ethyl}-amide hydrochloride]",–,–
